# Entries after “also recorded” stand apart in the source; their conditions may differ.
# Experiments:
# [1] = tested on: chronic extensor tendinopathy at the elbow; test: Extensor tendinopathy (tennis elbow) clinical trial (randomized, double blind, placebo controlled)
# [2] = tested on: Achilles tendinopathy (heels); test: Three year follow-up study of the Achilles trial of Example 1; assay type: in vivo, human; conditions: for Night Pain—All Heels (mean adjusted for baseline) / Pain at Rest—All Heels (mean adjusted for baseline) / Pain With Activity—All Heels (mean adjusted for baseline) / Tenderness—All Heels (mean adjusted for baseline) / Hop Test—All Heels (mean adjusted for baseline): N=32; for Pain With Activity—All Heels (mean adjusted for baseline): scale 0-4; for Tenderness—All Heels (mean adjusted for baseline): scale 0-3; for Hop Test—All Heels (mean adjusted for baseline): pain score 0-10
# Experimental: A three year follow-up study of the experiment presented in Example 1 was performed. […] Among the 52 patients in follow-up study ([…]), 15 had bilateral involvement (7 on the active patch and 8 on placebo). The results are presented in two sets. The follow-up study used the same outcome measures as were used in the original parent study.
# The first set compares the results of the 68 heels and the second set results are shown for the 52 patients by averaging results for patients with bilateral involvement. Analyses were performed as analyses of covariance, with the baseline assessment as the covariate, to adjust the results for baseline differences. Mean results shown in Tables III-XIII below are adjusted for the baseline values.
# [3] = tested on: de Quervain's tendinopathy in the right extensor tendons of the thumb; test: Example 4: patient case, de Quervain's tendinopathy; assay type: in vivo, human
# Source text: A patient suffering de Quervain's tendinopathy in the right extensor tendons of the thumb applies a transdermal patch delivering 10 mcg/hr nitroglycerin for a period of 24 weeks. This condition can be caused due to the arrival of a new baby and the consequent carrying as an unusual daily activity, and as is common, physical therapy and intermittent use of a wrist splint may provide little relief of symptoms.
# chronic tennis elbow = test: Example 5: patient case, chronic tennis elbow; assay type: in vivo, human; conditions: patch 60 mcg/hr for 2 weeks
# Source text: A patient suffering from chronic tennis elbow applies a transdermal patch delivering 60 mcg/hr nitroglycerin for a period of 2 weeks.
# [4] = tested on: persistent active tendinopathy of the left Achilles tendon; test: Example 3: patient case, persistent active tendinopathy of the left Achilles tendon; assay type: in vivo, human; conditions: patch 30 mcg/hr for 8 weeks
# Source text: A patient suffering from persistent active tendinopathy of the left Achilles tendon applies a transdermal patch delivering 30 mcg/hr nitroglycerin for a period of 8 weeks.
# [5] = 3 years, N=24, placebo 0.51, p=0.09
# [6] = 24 weeks, N=24, placebo 0.86, p=0.09
smiles,measurement,setting,value
"O=[N+]([O-])OCC(CO[N+](=O)[O-])O[N+](=O)[O-] [glyceryl trinitrate, 1,2,3-propanetriol trinitrate]",Headache (Days) Average,[1]; GTN group,GTN 5 Days
same,Headache (Days) Median,[1]; GTN group,GTN 3 Days
same,Headache (Days) Total,[1]; GTN group,136 days
same,Headache: percentage of patients,[1]; GTN group,63%
same,No Side Effects,[1]; GTN group,GTN 35%
same,Other Noted Side-Effects: Increase Axillary Sweating,[1]; GTN group,Sweating 2%
same,Pain Outcomes: elbow pain with activity vs placebo,[1]; Week 2 (p=0.01),significant decrease; also recorded: Decreased
same,Tenderness Outcomes: lateral epicondylar tenderness vs placebo,[1]; Week 6 (p=0.02) / 12 (p=0.02),significant decreases; also recorded: significantly less; also recorded: Decreased
same,Force Outcomes: ORI-TETS mean peak force vs placebo,[1]; Week 24 (p=0.03),significant increase; also recorded: Increased Mean
same,Force Outcomes: ORI-TETS mean total work vs placebo,[1]; Week 24 (p=0.03),significant increase; also recorded: Increased Mean
same,Other Noted Side-Effects: Rash,"[1]; application site, GTN group","Rash 21%,"
same,number needed to treat (NNT),"[1]; excellent result at 24 weeks, Chi square p=0.005",4.8
same,Discontinuations: Headache,"[1]; patients, all GTN group",Headache 2
same,Discontinuations: Rash,"[1]; patients, all GTN group","Rash 2,"
same,Paracetamol Average,"[1]; used for headache, GTN group",GTN 8 tablets
same,Paracetamol Median,"[1]; used for headache, GTN group",GTN 4 tablets
same,Paracetamol Total,"[1]; used for headache, GTN group",GTN 214 tablets
same,Improved Patient Outcomes,"[1]; week 24, more patients asymptomatic with activities of daily living than placebo, 1.25 mg/24 h patch + rehabilitation",21%
same,"patients with excellent improvement, patient reported","[1]; week 24, placebo 60%",81%
same,Night Pain—Average Result Used for Bilateral Patients,"[2]; 3 years, N=24, placebo 0.29, p=0.06",0.07
same,Pain at Rest—Average Result Used for Bilateral Patients,"[2]; 3 years, N=24, placebo 0.39, p=0.08",0.10
same,Hop Test—Average Result Used for Bilateral Patients,[2]; [5],0.15
same,Pain With Activity—Average Result Used for Bilateral Patients,[2]; [5],0.15
same,Tenderness—Average Result Used for Bilateral Patients,"[2]; 3 years, N=24, placebo 0.66, p=0.052",0.33
same,"RTS, %","[2]; 3 years, N=24, placebo 71.4%, p=0.16",87.5%
same,Night Pain—All Heels (mean adjusted for baseline),"[2]; 3 years, placebo 0.27, p=0.07",0.10
same,Pain at Rest—All Heels (mean adjusted for baseline),"[2]; 3 years, placebo 0.35, p=0.07",0.10
same,Pain With Activity—All Heels (mean adjusted for baseline),"[2]; 3 years, placebo 0.50, p=0.059",0.16
same,Tenderness—All Heels (mean adjusted for baseline),"[2]; 3 years, placebo 0.66, p=0.031",0.35
same,Hop Test—All Heels (mean adjusted for baseline),"[2]; 3 years, placebo 0.96, p=0.07",0.36
same,Night Pain—Average Result Used for Bilateral Patients,"[2]; 24 weeks, N=24, placebo 0.34, p=0.11",0.15
same,Pain at Rest—Average Result Used for Bilateral Patients,"[2]; 24 weeks, N=24, placebo 0.46, p=0.20",0.26
same,Hop Test—Average Result Used for Bilateral Patients,[2]; [6],0.44
same,Pain With Activity—Average Result Used for Bilateral Patients,[2]; [6],0.44
same,Tenderness—Average Result Used for Bilateral Patients,"[2]; 24 weeks, N=24, placebo 0.90, p=0.43",0.70
same,Night Pain—All Heels (mean adjusted for baseline),"[2]; 24 weeks, placebo 0.30, p=0.36",0.19
same,Pain at Rest—All Heels (mean adjusted for baseline),"[2]; 24 weeks, placebo 0.41, p=0.35",0.29
same,Pain With Activity—All Heels (mean adjusted for baseline),"[2]; 24 weeks, placebo 0.78, p=0.22",0.52
same,Tenderness—All Heels (mean adjusted for baseline),"[2]; 24 weeks, placebo 0.83, p=0.49",0.69
same,Hop Test—All Heels (mean adjusted for baseline),"[2]; 24 weeks, placebo 1.57, p=0.026",0.61
same,results of each assessment vs placebo,[2]; both at 24 weeks and at 3 years,numerically better results
same,pain after administration is stopped,"[3]; 2 years after stop, negative Finklestein test",continue to have reduced pain
same,pain during administration,"[3]; patch 10 mcg/hr for 24 weeks, person",decrease in pain within one day
same,continuation of the reduction of symptoms after discontinuance,chronic tennis elbow,at least two weeks
same,pain and tenderness of the ankle after discontinuation,[4]; eight weeks following discontinuation,continue to feel decreased pain and tenderness of the ankle
same,pain and tenderness of the ankle during therapy,[4]; person,reduction of pain and tenderness of the ankle by day 2 of therapy

# From patent US20060286159A1 (priority 2003, published 2006)
